The target of the assay is T1, Ecdysone receptor (Spodoptera frugiperda, UniProt Q8MWR1+Q8MWR2).
T1 sequence (Q8MWR2 whole entry): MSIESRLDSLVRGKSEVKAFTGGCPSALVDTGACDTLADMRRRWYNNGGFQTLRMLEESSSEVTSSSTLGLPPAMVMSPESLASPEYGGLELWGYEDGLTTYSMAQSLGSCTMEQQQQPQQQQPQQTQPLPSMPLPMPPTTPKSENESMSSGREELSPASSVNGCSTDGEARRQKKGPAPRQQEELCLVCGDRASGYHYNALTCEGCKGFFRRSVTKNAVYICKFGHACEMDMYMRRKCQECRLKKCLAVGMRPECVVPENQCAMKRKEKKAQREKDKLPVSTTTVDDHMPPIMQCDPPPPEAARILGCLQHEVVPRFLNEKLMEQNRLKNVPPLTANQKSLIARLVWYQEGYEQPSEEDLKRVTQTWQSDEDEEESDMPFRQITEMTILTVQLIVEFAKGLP
T1 sequence (Q8MWR1 whole entry): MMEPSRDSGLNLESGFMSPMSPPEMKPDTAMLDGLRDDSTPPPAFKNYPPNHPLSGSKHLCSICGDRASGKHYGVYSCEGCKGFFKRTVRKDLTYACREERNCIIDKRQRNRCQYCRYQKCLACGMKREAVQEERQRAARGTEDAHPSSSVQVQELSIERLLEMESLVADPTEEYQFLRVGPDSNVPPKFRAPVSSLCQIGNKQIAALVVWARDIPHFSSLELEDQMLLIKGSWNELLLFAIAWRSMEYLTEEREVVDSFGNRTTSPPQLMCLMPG
Description: Displacement of [3H]PonA from ecdysone receptor in Spodoptera frugiperda (fall armyworm) Sf-9 cells after 30 min by liquid scintillation counting. It is filed as cell-based. (In a radioligand displacement assay an active substance lowers the binding of a labelled ligand.)
In turn, `CC(C)(C)N(NC(=O)c1ccc(-c2ccccc2)cc1)C(=O)c1ccccc1Cl` showed an IC50 of 6760 nM. In the case of `CC(C)c1ccc(C(=O)NN(C(=O)c2ccccc2Cl)C(C)(C)C)cc1`, the IC50 was 15.1 nM. In the case of `CC(=O)c1ccc(C(=O)NN(C(=O)c2ccccc2Cl)C(C)(C)C)cc1` it was 427 nM.

On to `CC(C)(C)c1ccc(C(=O)NN(C(=O)c2ccccc2Cl)C(C)(C)C)cc1`, for which the IC50 was 21.9 nM. For the compound `CC(C)(C)N(NC(=O)c1ccc(S(C)(=O)=O)cc1)C(=O)c1ccccc1Cl`, the IC50 was 2880 nM. To `CC(C)(C)N(NC(=O)c1ccc(Br)cc1)C(=O)c1ccccc1Cl` belongs 20.4 nM; to `CC(C)(C)N(NC(=O)c1ccccc1)C(=O)c1ccccc1Cl`, 83.2 nM; to `CCCc1ccc(C(=O)NN(C(=O)c2ccccc2Cl)C(C)(C)C)cc1`, 22.9 nM.

With `CC(C)(C)N(NC(=O)c1ccc([N+](=O)[O-])cc1)C(=O)c1ccccc1Cl`, the 50% inhibitory concentration (IC50) was 380 nM. `CC(C)(C)N(NC(=O)c1ccc(C(F)(F)F)cc1)C(=O)c1ccccc1Cl` showed an IC50 of 110 nM. As to `Cc1ccc(C(=O)NN(C(=O)c2ccccc2Cl)C(C)(C)C)cc1`, the IC50 was 52.5 nM. Turning to `CCCCc1ccc(C(=O)NN(C(=O)c2ccccc2Cl)C(C)(C)C)cc1`, the 50% inhibitory concentration (IC50) was 5.37 nM. As for `CC(C)(C)N(NC(=O)c1ccc(Cl)cc1)C(=O)c1ccccc1Cl`, the 50% inhibitory concentration (IC50) was 129 nM.

Turning to `CC(C)(C)N(NC(=O)c1ccc(F)cc1)C(=O)c1ccccc1Cl`, the half-inhibitory concentration (IC50) is 51.3 nM.

Compound `CC(C)(C)N(NC(=O)c1ccc(I)cc1)C(=O)c1ccccc1Cl` gave a half-maximal inhibitory concentration (IC50) of 50.1 nM. As for `COc1ccc(C(=O)NN(C(=O)c2ccccc2Cl)C(C)(C)C)cc1`, the 50% inhibitory concentration (IC50) was 61.7 nM. To `CC(C)(C)N(NC(=O)c1ccc(C#N)cc1)C(=O)c1ccccc1Cl` belongs 1820 nM. To `CCc1ccc(C(=O)NN(C(=O)c2ccccc2Cl)C(C)(C)C)cc1` belongs 12.9 nM.

For orientation: IC50 means the concentration at which inhibition is half-maximal.

(Values after ChEMBL document CHEMBL3046124, “QSAR for Binding Affinity of Substituted Dibenzoylhydrazines to Intact Sf-9 Cells” (J Pestic Sci, 2005).)
